# Data published in US10548999B2, “Method and apparatus for sterilizing preform” (DAI NIPPON PRINTING CO., LTD., priority 2012, dated 2020).
# Read-outs that look alike come from different tables or passages of the source.
# What was measured:
# BaciLLus subtiLis [1] = details: 35% hydrogen peroxide water mist mixed with 60° C. hot air, about 50 mg per preform
# Description: (§1) Mist of hydrogen peroxide water was produced by supplying hydrogen peroxide water of 35% concentration and pressurized air to a two-fluid spray, the thus produced mist was mixed with hot air having temperature of 60° C., and then, the mist of the hydrogen peroxide water was sprayed inside a chamber through a nozzle. The chamber is a box-shaped member, having no bottom, having a size of 1,000 mm width, 1,500 mm length and 200 mm height, and the box-shaped chamber was set to a predetermined position on the conveyer having 600 mm width. Preforms of the number of 860 bottles/min., each being formed into a bottle of […], were supplied to the conveyer, which is driven at a speed of 0.2/sec.
# [2] = preform molded into a bottle and filled with water
# Description: as §1
# BaciLLus subtiLis [3] = tested on: BaciLLus subtiLis
# Description: The hydrogen peroxide water adhered to each preform having inner volume of 500 ml for bottle as in the first example 1. Furthermore, superheated steam of flow amount of 0.7 g/sec. generated by heating water by a superheated steam generator of an induction heating system was sprayed to the inner surface of each preform from a nozzle having inner diameter of 8 mm at blasting temperature in a range of 180 to 550° C. for 10 to 3 sec.
# Further, it is to be noted that, in the above Table 3, the sterilization effect is shown with [∘] (good) in the case where the D-value with respect to BaciLLus subtiLis is not less than 6, and the other cases are shown with [x] (not good). With respect to the deformation of the inner diameter, in the case where the inner diameter of the preform is deformed by less than 0.05 mm is shown [∘] (good), and the other cases are shown with [x] (not good).
# AspergiLLus niger [4] = details: then superheated steam 300° C. 5 sec. to inner surface
# Description: (§2) Mist of hydrogen peroxide water was produced by supplying hydrogen peroxide water of 35% concentration and pressurized air to a two-fluid spray, the thus produced mist was mixed with hot air having temperature of 60° C., and then, the mist of the hydrogen peroxide water was sprayed inside a chamber through a nozzle. The chamber has a size of 600 mm width, and a conveyer has 1.5 m length. Preforms, each being formed into a bottle of […], were supplied to the conveyer by the number of 860 bottles/min., and the conveyer was driven at a speed of 0.2/sec. […] Furthermore, preforms, each being formed into a bottle of […], were supplied by the number of 250 bottles/min., and the same operation was performed. […] Such preforms were subjected to the following treatment.
# (§3) Superheated steam of flow amount of 0.7 g/sec. generated by heating water by a superheated steam generator of induction heating system was sprayed to each inner surface of the preform from a nozzle having inner diameter of 8 mm at blasting temperature of 300° C. for 5 sec.
# (§4) In the above Table 1, term “B” is an abbreviated term of “BaciLLus subtiLis”, and “A.nig.” is an abbreviated term of “AspergiLLus niger”. “D” is a D-valve indicating the sterilizing effect.
# BaciLLus subtiLis [5] = details: then superheated steam 300° C. 5 sec. to inner surface
# Description: as §2, §3, §4
# AspergiLLus niger [6] = tested on: AspergiLLus niger
# Description: (§5) The first chamber 5a and the second chamber 6a have size of 1000 mm width, and 1500 mm length, and 200 mm height, respectively. Preforms, each being formed into a bottle of 500 ml, were supplied to the conveyer by the number of 860 bottles/min., and the conveyer was driven at a predetermined speed.
# (§6) In the above Table 4, term “B” is an abbreviated term of “BaciLLus subtiLis”, and “A.nig.” is an abbreviated term of “AspergiLLus niger”. “D” is a D-valve indicating the sterilization effect.
# BaciLLus subtiLis [7] = tested on: BaciLLus subtiLis; remark: listed apart in the source
# Description: as §5, §6
# [8] = preform for 2 L, 35% mist about 150 mg
# [9] = preform for 500 mL, 35% mist about 50 mg
# [10] = hydrogen peroxide 3%, hot air NO, superheated steam 400° C., 0.2 m/sec.
smiles,measurement,setting,value
OO [hydrogen peroxide],sterilizing power,BaciLLus subtiLis [1]; inner surface of the preform,4.2 D
same,sterilizing power,BaciLLus subtiLis [1]; outer surface of the preform,5.3 D
same,remaining amount of the hydrogen peroxide,[2],0.012 ppm
same,Sterilizing Effect,"BaciLLus subtiLis [3]; hydrogen peroxide water as in Example 1, then superheated steam 180° C., 10 sec.",X (the other cases are shown with [x] (not good))
same,Sterilizing Effect,"BaciLLus subtiLis [3]; hydrogen peroxide water as in Example 1, then superheated steam 250° C., 6 sec.",◯ ([∘] (good) in the case where the D-value with respect to BaciLLus subtiLis is not less than 6)
same,Sterilizing Effect,"BaciLLus subtiLis [3]; hydrogen peroxide water as in Example 1, then superheated steam 350° C., 4 sec.",◯ ([∘] (good) in the case where the D-value with respect to BaciLLus subtiLis is not less than 6)
same,Sterilizing Effect,"BaciLLus subtiLis [3]; hydrogen peroxide water as in Example 1, then superheated steam 450° C., 3 sec.",◯ ([∘] (good) in the case where the D-value with respect to BaciLLus subtiLis is not less than 6)
same,Sterilizing Effect,"BaciLLus subtiLis [3]; hydrogen peroxide water as in Example 1, then superheated steam 550° C., 3 sec.",◯ ([∘] (good) in the case where the D-value with respect to BaciLLus subtiLis is not less than 6)
same,sterilizing effect A. nig,AspergiLLus niger [4]; [8],More than 6.0D
same,sterilizing effect A. nig,AspergiLLus niger [4]; [9],More than 6.0D
same,sterilizing effect B. sub.,BaciLLus subtiLis [5]; [8],3.0D
same,sterilizing effect B. sub.,BaciLLus subtiLis [5]; [9],3.1D
same,sterilization effect A. niger,AspergiLLus niger [6]; [10],6.0D
same,sterilizing effect with respect to the A. niger,"AspergiLLus niger [6]; superheated steam added with hydrogen peroxide, regardless of the preheating by hot air (summary of Table 4)",more than 6.0 D
same,sterilization effect B. sub.,"BaciLLus subtiLis [7]; hydrogen peroxide 3%, hot air 100° C., superheated steam 200° C., 0.2 m/sec.",5.3D
same,sterilization effect B. sub.,"BaciLLus subtiLis [7]; hydrogen peroxide 3%, hot air 100° C., superheated steam 400° C., 0.2 m/sec.",6.0D
same,sterilization effect B. sub.,BaciLLus subtiLis [7]; [10],4.0D
same,sterilization effect B. sub.,"BaciLLus subtiLis [7]; hydrogen peroxide 10%, hot air 80° C., superheated steam 400° C., 0.2 m/sec.",6.0D
same,sterilization effect B. sub.,"BaciLLus subtiLis [7]; hydrogen peroxide 10%, hot air NO, superheated steam 400° C., 0.5 m/sec.",5.5D
same,sterilizing effect with respect to the B.sub,BaciLLus subtiLis [7]; preheating performed and superheated steam added with hydrogen peroxide blasted (summary of Table 4),more than 6.0 D
